Measurements from the NIST ThermoML archive (doi:10.1016/j.tca.2015.06.017).

Settings: Liquid, Vibrating tube method

CCCCCCC [heptane]
mass density [kg/m3]
Settings	283.15 K	288.15 K	293.15 K	298.15 K	303.15 K	308.15 K	313.15 K	318.15 K	323.15 K	328.15 K
100 kPa	692.57	688.55	684.19	679.95	675.68	671.39	667.06	662.54	658.32	653.81
2000 kPa	694.49	690.28	686.15	682.02	677.75	673.45	669.26	664.87	660.53	656.27
5000 kPa	697.06	693.01	688.99	684.8	680.76	676.49	672.35	668.35	664.05	659.84
7000 kPa	698.8	694.77	690.74	686.68	682.65	678.48	674.51	670.32	666.33	661.99
10000 kPa	701.2	697.23	693.41	689.23	685.52	681.37	677.42	673.52	669.41	665.25
20000 kPa	709.08	705.18	701.57	697.65	694.07	690.12	686.53	682.85	679.17	675.25
30000 kPa	716.12	712.38	708.99	705.17	701.86	698.22	694.65	691.31	687.64	684.02
40000 kPa	722.63	719.01	715.7	712.11	708.87	705.32	702.08	698.89	695.38	691.84
50000 kPa	728.63	725.2	722.03	718.54	715.5	712.12	708.98	705.82	702.5	699.13
60000 kPa	734.33	731.01	728.02	724.73	721.67	718.41	715.39	712.36	709.15	706.05
65000 kPa	736.99	733.73	730.72	727.65	724.56	721.43	718.32	715.32	712.32	709.3
